Test results reported in patent publication US20100227859A1, “TRICYCLIC COMPOUNDS AS MATRIX METALLOPROTEINASE INHIBITORS” (priority 2007, published 2010).

The compounds below were run against purified human MMP-12 enzyme (Homo sapiens, UniProt P39900) (assay: MMP-12 FRET assay). Conditions: substrate 20 μM, room temperature.
Assay type: biochemical
Experimental: Compounds according to the present teachings were tested in an MMP-12 FRET assay as follows. To each well of black polystyrene 96-well plate was added assay buffer (50 mM HEPES (pH 7.4), 100 mM NaCl, 5 mM CaCl2 and 0.005% Brij-35 (Polyoxyethyleneglycol dodecyl ether, Pierce cat#20150), purified human MMP-12 enzyme, and varied concentrations of test compounds (prepared by serial dilution of a stock solution in 100% DMSO). The plates were incubated at room temperature for 30 minutes. The enzymatic reactions were initiated by addition of a substrate, MCA-Pro-Leu-Gly-Leu-Dpa(DNP)-Ala-Arg, containing a fluorescent group (7-methoxycoumarin, MCA) and a 2,4-dinitrophenyl group (DNP), to a final concentration of 20 μM. The final DMSO concentration in the assay was 10%. The reaction was monitored for 30 minutes at room temperature and the initial rate of the cleavage reaction was determined using a fluorescence plate reader (λex: 325 nm, λem: 395 nm). Plots of the inhibitor concentration vs. the initial cleavage rate were fit to the following equation: y=Vmax*(1−(x^n/(K^n+x^n))), whereby x=inhibitor concentration, y=initial rate, Vmax=initial rate in the absence of inhibitor, n=slope factor, and K=IC50 for the inhibition curve.

purified human MMP-12 enzyme, sequence (P39900 106-470): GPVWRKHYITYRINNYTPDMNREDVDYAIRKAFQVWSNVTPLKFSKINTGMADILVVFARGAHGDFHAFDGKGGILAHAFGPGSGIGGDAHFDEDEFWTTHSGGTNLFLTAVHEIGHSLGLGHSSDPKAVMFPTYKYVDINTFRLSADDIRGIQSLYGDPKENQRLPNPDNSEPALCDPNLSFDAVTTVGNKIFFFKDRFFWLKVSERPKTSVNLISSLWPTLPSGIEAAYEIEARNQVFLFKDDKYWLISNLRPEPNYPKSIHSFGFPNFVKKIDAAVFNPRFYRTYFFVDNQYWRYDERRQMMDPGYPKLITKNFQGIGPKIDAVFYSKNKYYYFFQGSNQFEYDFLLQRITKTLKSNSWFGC

Structure (SMILES) | IC50
CC(C)[C@@H](NS(=O)(=O)c1ccc2c(c1)oc1ccc(-c3ccc4c(c3)C(C)(C)OC(=O)N4)cc12)C(=O)O [Compound 1, (R)-2-(8-(4,4-dimethyl-2-oxo-2,4-dihydro-1H-benzo[d][1,3]oxazin-6-yl)dibenzo[b,d]furan-3-sulfonamido)-3-methylbutanoic acid] | 11 nM
CC(C)[C@H](NS(=O)(=O)c1ccc2c(c1)oc1ccc(C#CCN(C)C)cc12)C(=O)O [Compound 2, (S)-2-(8-(3-(dimethylamino)prop-1-ynyl)dibenzo[b,d]furan-3-sulfonamido)-3-methylbutanoic acid] | 2.4 nM
CC(C)[C@H](NS(=O)(=O)c1ccc2c(c1)oc1ccc(-c3cccnc3)cc12)C(=O)O [Compound 3, (S)-3-methyl-2-(8-(pyridin-3-yl)dibenzo[b,d]furan-3-sulfonamido)butanoic acid] | < 1.5 nM
CC(C)[C@H](NS(=O)(=O)c1ccc2c(c1)oc1ccc(-c3ccc4c(c3)C(C)(C)OC(=O)N4)cc12)C(=O)O [Compound 4, (S)-2-(8-(4,4-dimethyl-2-oxo-2,4-dihydro-1H-benzo[d][1,3]oxazin-6-yl)dibenzo[b,d]furan-3-sulfonamido)-3-methylbutanoic acid] | 12.2 nM
Cc1cscc1-c1ccc2oc3cc(S(=O)(=O)N[C@H](C(=O)O)C(C)C)ccc3c2c1 [Compound 5, (S)-3-methyl-2-(8-(4-methylthiophen-3-yl)dibenzo[b,d]furan-3-sulfonamido)butanoic acid] | 2.2 nM
COC(=O)C#Cc1ccc2oc3cc(S(=O)(=O)N[C@H](C(=O)O)C(C)C)ccc3c2c1 [Compound 6, (S)-2-(8-(3-methoxy-3-oxoprop-1-ynyl)dibenzo[b,d]furan-3-sulfonamido)-3-methylbutanoic acid] | 30.4 nM
Cc1noc(C)c1-c1ccc2oc3cc(S(=O)(=O)N[C@H](C(=O)O)C(C)C)ccc3c2c1 [Compound 9, (S)-2-(8-(3,5-dimethylisoxazol-4-yl)dibenzo[b,d]furan-3-sulfonamido)-3-methylbutanoic acid] | 10.7 nM
COc1ccc(-c2ccc3oc4cc(S(=O)(=O)N[C@H](C(=O)O)C(C)C)ccc4c3c2)cn1 [Compound 10, (S)-2-(8-(6-methoxypyridin-3-yl)dibenzo[b,d]furan-3-sulfonamido)-3-methylbutanoic acid] | < 1.5 nM
CC(C)[C@H](NS(=O)(=O)c1ccc2c(c1)sc1ccc(-c3cccnc3)cc12)C(=O)O [Compound 11, (S)-3-methyl-2-(8-(pyridin-3-yl)dibenzo[b,d]thiophene-3-sulfonamido)butanoic acid] | 15.6 nM
CC(C)[C@H](NS(=O)(=O)c1ccc2c(c1)oc1ccc(-c3csc4ccccc34)cc12)C(=O)O [Compound 12, (S)-2-(8-(benzo[b]thiophen-3-yl)dibenzo[b,d]furan-3-sulfonamido)-3-methylbutanoic acid] | < 1.5 nM
CC(C)[C@H](NS(=O)(=O)c1ccc2c(c1)oc1ccc(-c3cc4ccccc4s3)cc12)C(=O)O [Compound 13, (S)-2-(8-(benzo[b]thiophen-2-yl)dibenzo[b,d]furan-3-sulfonamido)-3-methylbutanoic acid] | 1.7 nM
CC(C)[C@H](NS(=O)(=O)c1ccc2c(c1)oc1ccc(-c3ccc4ncccc4c3)cc12)C(=O)O [Compound 14, (S)-3-methyl-2-(8-(quinolin-6-yl)dibenzo[b,d]furan-3-sulfonamido)butanoic acid] | < 1.5 nM
CC(C)[C@H](NS(=O)(=O)c1ccc2c(c1)oc1ccc(C#Cc3cncn3C)cc12)C(=O)O [Compound 15, (S)-3-methyl-2-(8-((1-methyl-1H-imidazol-5-yl)ethynyl)dibenzo[b,d]furan-3-sulfonamido)butanoic acid] | < 1.5 nM
CC(C)[C@H](NS(=O)(=O)c1ccc2c(c1)oc1ccc(-c3ccncc3)cc12)C(=O)O [Compound 16, (S)-3-methyl-2-(8-(pyridin-4-yl)dibenzo[b,d]furan-3-sulfonamido)butanoic acid] | < 1.5 nM
CC(C)[C@H](NS(=O)(=O)c1ccc2c(c1)oc1ccc(-c3cnn(C)c3)cc12)C(=O)O [Compound 18, (S)-3-methyl-2-(8-(1-methyl-1H-pyrazol-4-yl)dibenzo[b,d]furan-3-sulfonamido)butanoic acid] | < 1.5 nM
Cc1n[nH]c(C)c1-c1ccc2oc3cc(S(=O)(=O)N[C@H](C(=O)O)C(C)C)ccc3c2c1 [Compound 19, (S)-2-(8-(3,5-dimethyl-1H-pyrazol-4-yl)dibenzo[b,d]furan-3-sulfonamido)-3-methylbutanoic acid] | 44 nM
CC(C)CCn1cc(-c2ccc3oc4cc(S(=O)(=O)N[C@H](C(=O)O)C(C)C)ccc4c3c2)cn1 [Compound 20, (S)-2-(8-(1-isopentyl-1H-pyrazol-4-yl)dibenzo[b,d]furan-3-sulfonamido)-3-methylbutanoic acid] | 4 nM

Structure (SMILES) | IC50
CCCn1cc(-c2ccc3oc4cc(S(=O)(=O)N[C@H](C(=O)O)C(C)C)ccc4c3c2)cn1 [Compound 21, (S)-3-methyl-2-(8-(1-propyl-1H-pyrazol-4-yl)dibenzo[b,d]furan-3-sulfonamido)butanoic acid] | < 1.5 nM
CC(C)[C@H](NS(=O)(=O)c1ccc2c(c1)oc1ccc(-c3cnn(Cc4ccccc4)c3)cc12)C(=O)O [Compound 22, (S)-2-(8-(1-benzyl-1H-pyrazol-4-yl)dibenzo[b,d]furan-3-sulfonamido)-3-methylbutanoic acid] | 3 nM
CC(C)[C@H](NS(=O)(=O)c1ccc2c(c1)oc1ccc(-c3cn[nH]c3)cc12)C(=O)O [Compound 23, (S)-2-(8-(1H-pyrazol-4-yl)dibenzo[b,d]furan-3-sulfonamido)-3-methylbutanoic acid] | < 1.5 nM
Cc1cscc1-c1ccc2sc3cc(S(=O)(=O)N[C@H](C(=O)O)C(C)C)ccc3c2c1 [Compound 24, (S)-3-methyl-2-(8-(4-methylthiophen-3-yl)dibenzo[b,d]thiophene-3-sulfonamido)butanoic acid] | 190 nM
CC(C)[C@H](NS(=O)(=O)c1ccc2c(c1)sc1ccc(-c3ccoc3)cc12)C(=O)O [Compound 25, (S)-2-(8-(furan-3-yl)dibenzo[b,d]thiophene-3-sulfonamido)-3-methylbutanoic acid] | 4.8 nM
CC(C)[C@H](NS(=O)(=O)c1ccc2c(c1)sc1ccc(-c3ccsc3)cc12)C(=O)O [Compound 26, (S)-3-methyl-2-(8-(thiophen-3-yl)dibenzo[b,d]thiophene-3-sulfonamido)butanoic acid] | 38 nM
Cc1noc(C)c1-c1ccc2sc3cc(S(=O)(=O)N[C@H](C(=O)O)C(C)C)ccc3c2c1 [Compound 27, (S)-2-(8-(3,5-dimethylisoxazol-4-yl)dibenzo[b,d]thiophene-3-sulfonamido)-3-methylbutanoic acid] | 700 nM
CC(C)[C@H](NS(=O)(=O)c1ccc2c(c1)oc1ccc(-c3ccsc3)cc12)C(=O)O [Compound 28, (S)-3-methyl-2-(8-(thiophen-3-yl)dibenzo[b,d]furan-3-sulfonamido)butanoic acid] | < 1.5 nM
CC(=O)c1ccc(-c2ccc3oc4cc(S(=O)(=O)N[C@H](C(=O)O)C(C)C)ccc4c3c2)s1 [Compound 32, (S)-2-(8-(5-acetylthiophen-2-yl)dibenzo[b,d]furan-3-sulfonamido)-3-methylbutanoic acid] | < 1.5 nM
Cc1csc(-c2ccc3oc4cc(S(=O)(=O)N[C@H](C(=O)O)C(C)C)ccc4c3c2)c1 [Compound 33, (S)-3-methyl-2-(8-(4-methylthiophen-2-yl)dibenzo[b,d]furan-3-sulfonamido)butanoic acid] | < 1.5 nM
CC(C)[C@H](NS(=O)(=O)c1ccc2c(c1)oc1ccc(-c3ccsc3Cl)cc12)C(=O)O [Compound 34, (S)-2-(8-(2-chlorothiophen-3-yl)dibenzo[b,d]furan-3-sulfonamido)-3-methylbutanoic acid] | < 1.5 nM
CC(C)[C@H](NS(=O)(=O)c1ccc2c(c1)oc1ccc(/C=C/C3CCCCC3)cc12)C(=O)O [Compound 35, (S,E)-2-(8-(2-cyclohexylvinyl)dibenzo[b,d]furan-3-sulfonamido)-3-methylbutanoic acid] | < 1.5 nM
CC(C)[C@H](NS(=O)(=O)c1ccc2c(c1)oc1ccc(-c3ccco3)cc12)C(=O)O [Compound 37, (S)-2-(8-(furan-2-yl)dibenzo[b,d]furan-3-sulfonamido)-3-methylbutanoic acid] | 1.9 nM
COC#Cc1ccc2oc3cc(S(=O)(=O)N[C@H](C(=O)O)C(C)C)ccc3c2c1 [Compound 38, (S)-2-(8-(methoxyethynyl)dibenzo[b,d]furan-3-sulfonamido)-3-methylbutanoic acid] | < 1.5 nM
CCN(C#Cc1ccc2oc3cc(S(=O)(=O)N[C@H](C(=O)O)C(C)C)ccc3c2c1)CC [Compound 39, (S)-2-(8-((diethylamino)ethynyl)dibenzo[b,d]furan-3-sulfonamido)-3-methylbutanoic acid] | 39 nM
CC(C)[C@H](NS(=O)(=O)c1ccc2c(c1)sc1ccc(-c3cnn(C)c3)cc12)C(=O)O [Compound 40, (S)-3-methyl-2-(8-(1-methyl-1H-pyrazol-4-yl)dibenzo[b,d]thiophene-3-sulfonamido)butanoic acid] | 2.6 nM
Cc1n[nH]c(C)c1-c1ccc2sc3cc(S(=O)(=O)N[C@H](C(=O)O)C(C)C)ccc3c2c1 [Compound 41, (S)-2-(8-(3,5-dimethyl-1H-pyrazol-4-yl)dibenzo[b,d]thiophene-3-sulfonamido)-3-methylbutanoic acid] | 77 nM
